From patent publication US7888527B2 (University of Virginia Patent Foundation, priority 2004, dated 2011)
“Also recorded” adds a separate entry of the source.

Experiments:
human S1P1 receptor [1] = target: T1, human S1P1 receptor (Homo sapiens, UniProt P21453); test: Cell migration assay, T24 cells transfected stably with human S1P1 receptor; type: cell-based; set-up: expressed in transfected cells
Method: […] monolayers are co-transfected with the human S1P1, S1P2, S1P3 receptor encoding DNAs and the pIRESpuro2 plasmid DNA (Clontech, San Jose, Calif.,) using either Lipofectamine 2000 (Invitrogen, Carlsbad, Calif.) or FuGENE 6 (Roche Applied Science, Indianapolis, Ind.). Clonal populations expressing the puromycin acetyltransferase gene are selected by addition of puromycin (Sigma-Aldrich, St. Louis, Mo.) to the culture media. T24 cells are grown in monolayers at 37° C. in a 5% CO2/95% air atmosphere in growth media consisting of: 95% DMEM/F-12 medium and 10% charcoal/dextran stripped FBS.
Cell migration assays are performed using modified Boyden chambers (tissue culture-treated, 24-mm diameter, 10-μm thickness, 8-μm pores, Transwell®; Costar Corp., Cambridge, Mass.) containing polycarbonate membranes that are coated on the underside with 0.1% gelatin. The underside of the polycarbonate membranes is rinsed once with migration media (DMEM/F12 without Phenol Red and 0.1% fatty acid free BSA) and then immersed in the lower chamber containing two milliliters of migration media. T24 cells transfected stably with human S1P1 receptor DNA were grown in DMEM/F12 media containing charcoal/dextran stripped FBS and 10 μg/ml puromycin to 100% confluence in 150×2.5 mm tissue culture plates and serum starved at least 12 hours. Serum-starved cells were removed from culture dishes with 10× Trypsin-EDTA (Hanks' balanced salt solution containing 5 mM EDTA and 25 mM HEPES, pH 7.2, and 0.1% trypsin; Invitrogen, San Diego, Calif.), suspended in migration buffer and collected by centrifugation at 130×g for 5 minutes. The supernatant fluid was removed by aspiration and cell pellet resuspended in migration media (10^6 cells/ml). […] The non-migrating cells in the upper chamber were removed by aspiration and the migratory cells attached to the bottom surface of the membrane were isolated by incubation in 10× Trypsin-EDTA for 1 min at room temperature and gently tapping the plate to dislodge cells from the membrane. The mass of migratory cells per membrane was evaluated by combining 100 μl of cell suspension with an equal volume of CyQuant dye solution (3.0 ml of 2× lysis buffer and 15 μl CyQuant dye), and the resulting fluorescence quantified using the FlexStation™ fluorimeter (Molecular Devices, Menlo Park, Calif.). Each determination represents the average of two individual migration chambers. […] The monolayer was washed three times with phosphate buffered saline and processed immediately for the cell migration assay, as described above.

[2] = tested on: LPA1-3 EDG-family receptors; test: Activity at LPA receptors; type: biochemical, human; conditions: concentrations up to 30 μM
From the text: (§1) The appropriate receptor plasmid DNA (encoding human S1P1, human S1P2, human S1P3, human S1P4, human S1P5, human LPA1, human LPA2 or human LPA3 receptors) is mixed with equal amounts of expression plasmids encoding human Gi2α (for S1P3, a mutated (C352F) rat Gi2α is used), cow β1, and cow γ2 proteins, and these DNAs are used to transfect monolayers of HEK293T cells (where ‘T’ indicates expression of the SV-40 virus large T antigen) using the calcium phosphate precipitate method (7). After about 60 hours, cells are harvested, membranes prepared, aliquoted, and stored at −70° C. until use (8).
(§2) The [γ-^35S]GTP binding assay is performed as described previously (8). Membranes containing 1-5 μg of protein are incubated in 0.1 ml of binding buffer (in mM: HEPES/50, NaCl/100, MgCl2/10, pH 7.5) containing 5 μg of saponin, 10 μM GDP, 0.1 nM [γ-^35S]GTP (1200 Ci/mmol), and indicated lipid(s) for 30 min at 30° C. and collected using a Brandel Cell Harvester (Gaithersburg, Md.). Samples are then analyzed for bound radionuclide.

human S1P1 receptor [3] = target: T1, human S1P1 receptor; test: [γ-35S]GTP binding assay, HEK293T membranes (agonism and Schild antagonism); type: biochemical; set-up: expressed in transfected cells; host or cells: HEK293T, transient transfection; membranes
From the text: as §1, §2
(§3) Briefly, nonlinear analysis of the best-fit line generated by plotting the negative log of the EC50 values obtained from agonist dose-response curves, in the absence and presence of varying concentrations of antagonist, was plotted against the concentration of antagonist to give the Kb value.
(§4) Statistical Analysis. The EC50 and IC50 values for all dose response curves were determined by nonlinear regression analysis of all data using the Graphpad Prism© program. The error associated with the data collected is reported as the standard error of the mean (S.E.M).

human S1P1 receptor [4] = target: T1, human S1P1 receptor; test: [32P]S1P binding assay, HEK293T membranes; set-up: expressed in transfected cells; host or cells: HEK293T, transient transfection; membranes; conditions: read-out: pKi S1P1 (converted)
Method: (§5) [^32P]-S1P was prepared by incubating sphingosine and [γ-^32P]ATP with cell lysate from HEK293T cells transiently transfected with human sphingosine kinase type 2 DNA. The 200 μl reaction contained 0.025 mM sphingosine, 1 mCi [γ-^32P]ATP (7000 Ci/mmol) and kinase buffer (in mM: Mg(C2H3O2)2 (in 50 mM Tris, pH 7.5)/10, NaF/10, and semicarbizide/2). The reaction was initiated by the addition of 20 μg of cell lysate and incubated at 37° C. for at least 30 minutes. […] The organic layer was isolated and the extraction procedure repeated two additional times with the remaining aqueous fraction. The combined organic fractions were dried under a stream of nitrogen gas and resuspended in aqueous 0.1% fatty acid free BSA.
(§6) Bound ligand was separated from free ligand by rapid filtration and analyzed in a liquid scintillation counter.
as §4

human S1P3 receptor [5] = target: T2, human S1P3 receptor (Homo sapiens, UniProt Q99500); test: [32P]S1P binding assay, HEK293T membranes; set-up: expressed in transfected cells; host or cells: HEK293T, transient transfection; membranes; conditions: read-out: pKi S1P3 (converted)
Method: as §5, §6, §4

human S1P3 receptor [6] = target: T2, human S1P3 receptor; test: [γ-35S]GTP binding assay, HEK293T membranes (agonism and Schild antagonism); type: biochemical; set-up: expressed in transfected cells; host or cells: HEK293T, transient transfection; membranes
From the text: as §1, §2, §3, §4

[7] = VPC23019 concentrations greater than 100 nM
[8] = [γ-35S]GTP binding, S1P with increasing VPC23019, Lew and Angus regression

T1 sequence (P21453 whole entry): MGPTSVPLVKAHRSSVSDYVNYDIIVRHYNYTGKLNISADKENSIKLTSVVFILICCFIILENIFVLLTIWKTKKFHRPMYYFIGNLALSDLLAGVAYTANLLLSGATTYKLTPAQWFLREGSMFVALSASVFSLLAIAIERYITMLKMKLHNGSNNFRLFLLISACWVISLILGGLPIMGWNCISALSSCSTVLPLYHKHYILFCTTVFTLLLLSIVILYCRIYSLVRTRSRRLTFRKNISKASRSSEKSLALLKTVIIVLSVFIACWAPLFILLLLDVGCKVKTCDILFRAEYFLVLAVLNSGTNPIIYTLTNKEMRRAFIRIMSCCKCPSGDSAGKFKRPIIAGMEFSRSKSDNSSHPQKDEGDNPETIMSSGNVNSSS
T2 sequence (Q99500 whole entry): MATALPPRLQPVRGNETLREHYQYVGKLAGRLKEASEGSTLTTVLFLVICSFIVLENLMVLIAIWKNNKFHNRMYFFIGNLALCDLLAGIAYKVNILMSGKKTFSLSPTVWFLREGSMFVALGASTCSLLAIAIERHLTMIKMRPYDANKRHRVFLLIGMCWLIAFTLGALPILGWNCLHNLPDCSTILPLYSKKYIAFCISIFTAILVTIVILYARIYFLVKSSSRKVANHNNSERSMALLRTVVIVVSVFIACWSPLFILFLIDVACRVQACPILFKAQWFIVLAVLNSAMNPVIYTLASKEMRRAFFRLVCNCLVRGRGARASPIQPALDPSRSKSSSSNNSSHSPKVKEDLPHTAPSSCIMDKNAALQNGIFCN

- Blockade of VPC22277 (10 nM)-induced migration (human S1P1 receptor [1]; 50 nM antagonist): Blockade
- Reversibility of antagonism after washout, cell migration (human S1P1 receptor [1]; 10 μM VPC23019 pre-incubation 30 min, washed): recovered fully
- Blockade of VPC22277 (10 nM)-induced migration (human S1P1 receptor [1]; 10, 100 and 1000 nM antagonist): blockade
- Migration of T24-S1P1 cells evoked by compound alone (human S1P1 receptor [1]; VPC22277 10 nM, VPC23019 1 nM-1000 nM): no migration was evoked and not
- Agonist activity at LPA1-3 receptors [2]: neither agonist activity
- Agonist activity at the S1P1 receptor (human S1P1 receptor [3]): lacked agonist activity
- pKb S1P1 (human S1P1 receptor [3]; Schild analysis (Lew and Angus) of S1P curves in [γ-35S]GTP binding, ± S.E.M.): 7.49±0.16
- Inverse agonism profile at S1P1 (human S1P1 receptor [3]; [7]): a profile suggesting inverse agonism
- Kb (human S1P1 receptor [3]; read-out: pKb S1P1 (converted)): 32.4 nM
- Ki (human S1P1 receptor [4]): 13.8 nM
- Ki (human S1P3 receptor [5]): 1170 nM
- Agonist activity at the S1P3 receptor (human S1P3 receptor [6]): lacked agonist activity
- Inverse agonism profile at S1P3 (human S1P3 receptor [6]; [7]): a profile suggesting inverse agonism
- Kb (human S1P3 receptor [6]; read-out: pKb S1P3 (converted)): 1050 nM
Compound: CCCCCCCCc1cccc(NC(=O)[C@H](N)COP(=O)(O)O)c1 [VPC23019]
- Antagonism of S1P at the S1P1 receptor (human S1P1 receptor [3]; [8]): dose-dependent, parallel rightward shift; also recorded: competitive antagonist
- Agonist efficacy class S1P1 (human S1P1 receptor [3]; relative to S1P Emax): na (no agonist activity (<10% of S1P Emax))
- Antagonism of S1P at the S1P3 receptor (human S1P3 receptor [6]; [8]): dose-dependent, parallel rightward shift; also recorded: competitive antagonist
- Agonist efficacy class S1P3 (human S1P3 receptor [6]; relative to S1P Emax): na (no agonist activity (<10% of S1P Emax))
